From patent US6365610B1, “Ozonide compounds with inhibitory activity for urokinase production and angiogenesis” (Taiho Pharmaceutical Company Ltd., priority 1998, dated 2002)

Legend:
[1] = system: urokinase; assay: Urokinase production inhibition test (HT-1080 culture supernatant urokinase activity); assay type: cell-based, Human; details: HT-1080 cells
Experimental: This test was conducted substantially according to the method described in Biochem. Biophys. Res. Commun., 142(1), 147-54(1987) as will be described in detail below.
Human fibrosarcoma cells HT-1080 were purchased from American Type Culture Collection (product of Rockville). HT-1080 cells were cultured at 37° C. in a 5% CO2 incubator in RPMI-1640 medium (product of Nissui Seiyaku Co., Ltd.) containing 10% (v/v) of […] bovine fetal serum (product of ATLANTA Biological). The cells were suspended in 0.2% trypsin 2 mM EDTA solution for use in the experiment.
The suspension of HT-1080 cells as adjusted to 1×10^5 cells/ml was placed onto a 96-well flat-bottomed incubation plate dividedly in 200 μl quantities (2×10^4 cells/well) and incubated at 37° C. for 4 hours. The supernatant was thereafter removed and replaced with the same amount of serum-free medium [hereinafter referred to as “serum(−)”], followed by incubation for 20 hours. Subsequently, serum(−) was replaced with 199 μl of serum-containing medium [hereinafter referred to as “serum(+)”], and 1 μl of a sample solution containing an active component of the invention and prepared by dissolving the component in dimethyl sulfoxide (DMSO) was added to serum(+) in the incubation plate, followed by further incubation at 37° C. for 24 hours. The resulting supernatant was removed under suction, serum(−) was added in 200 μl quantities, followed by incubation again for 24 hours, and the supernatant of the culture was collected.
To determine the conditions for measuring urokinase activity in the supernatant, the reaction time and the concentration of a synthetic substrate were investigated using recombinant human urokinase (product of CHROMOGENIX AB) and VLKpA (valylleucyllysyl p-nitroamide, product of Sigma Chemical CO.) serving as the […] at a constant concentration (2.8 μg/ml) of plasminogen. When the culture supernatant of HT-1080 cells was checked for urokinase activity preliminarily, the activity was about 0.02 IU/μl. An urokinase solution with activity of 0.02 IU/μl was reacted with the synthetic substrate of varying concentrations.
A 85 μl portion of the culture supernatant and 15 μl of substrate reaction mixture [427 mM Tris-HCl (pH 8.0), 27 mM EDTA (pH 8.0), 1.5 mM VLKpA, 125 μg/ml plasminogen (product of CHROMOGENIX AB] were mixed together in a 96-well incubation plate and reacted at 37° C. for 30 minutes, and the reaction mixture was checked for absorbance at 405 nm using an immunoreader. The urokinase production inhibition ratio was calculated from the following equation.
Inhibition ratio (%)=(1−T/C)×100
wherein T is the average absorbance of a group given the sample, and C is the average absorbance of a control group.

[2] = system: Lewis lung cancer strain (LLC); assay type: in vivo
Experimental: The test animals used were 7-week-old female C57BL/6 mice (Nippon Charles River) weighing 17 to 20 g. A subcutaneous tumor (1.0×10^5 cells) of Lewis lung cancer strain (LLC) was transplanted in the mice, and a suspension of a test compound in an aqueous solution of 3% ethanol and 5% gum arabic was given on day 3 and thereafter. The test compound used was compound 6, which was intraperitoneally administered at a dose of 15 mg/kg every other day. On the other hand, 100 μl of 3% ethanol-5% gum arabic aqueous solution was intraperitoneally given to a control group. The mice were checked for body weight and the major and minor diameters of the primary tumor every other day, and an estimated tumor volume (V) was determined by calculating (minor diameter)^2×(major diameter)÷2. The tumor growth inhibition ratio (%) was calculated from the estimated tumor volume of day 24 after the transplantation using the following equation.
Tumor growth inhibition ratio (%)=(1−Tv/Cv)×100
wherein Tv is the tumor volume (mm^3) of the group given the test compound, and Cv is the tumor volume (mm^3) of the control group.
The tumor was excised from each mouse, fixed with acetone, and checked for the number of lesions metastasized to the lungs to calculate the lung metastasis inhibition ratio (%) from the following equation.
Lung metastasis inhibition ratio (%)=(1−T/C)×100
wherein T is the number of metastatic nodules in the group given the test compound, and C is the number of metastatic nodules in the control group.

[3] = system: fertilized egg chorioallantonic membrane (CAM); assay: Angiogenesis inhibition test, fertilized egg chorioallantonic membrane (CAM) method; assay type: in vivo, hen; details: scored points over all eggs
Experimental: This experiment was conducted substantially according to the fertilized egg chorioallantonic membrane (abbreviated as CAM) method described in ADVANCES IN CANCER RESEARCH, vol. 43, 175-203. The fertilized hen's eggs (Plymouth Rock breed×white leghorn breed) used were purchased from Gotoh Brooder (Gifu Prefecture) and incubated in an incubator (product of Tokyo Rikagaku Kikai Co., Ltd.) at a humidity of 70% and 37° C.
The air chamber of each egg was located by illuminating the egg and the egg shell was injured with a rotary file at two locations, i.e., an upper portion of the air chamber and a side portion of the egg on day 3, taking the day when the incubation was started as day 0. About 3 ml of the albumen was aspirated through the side hole with a syringe for removal, and the air was removed from the upper portion with a dropper. With the side hole sealed with OpSite (product of Smith and Nephew Ltd.), the air chamber upper portion was injured in the form of a 1 cm square, the egg shell and the egg membrane were removed from the square area, and the opening was sealed with OpSite. The seal was removed from the opening on day 5 to form a window, which was sealed with Tegaderm (product of 3M Health Care Ltd.). A disk is made from 20 μl of 1% gelatin with drying, 20 μl of 0.5% aqueous methyl cellulose solution containing an active component of the invention was applied to the disk to form a superposed layer, and the resulting disk was dried in a clean bench. The Tegaderm seal was removed, the disk was placed at rest on the CAM, and the window was sealed again. The shell was removed from an upper portion of the egg on day 7, and 1 ml of 20% Intralipos (product of Green Cross Co., Ltd.) was injected into the egg under the CAM. The CAM was observed under a surgical microscope and photographed at a magnification of ×4 to ×8.
The effect to inhibit angiogenesis was determined substantially according to the method described in Cancer Lett., 48(2), 157-62(1989). More specifically, a vessel-free region, when found over a distance of at least 2 mm around the methyl cellulose layer, was interpreted as indicating angiogenesis inhibitory activity (+), weak inhibitory activity of less than 2 mm as indicating quasi-positive (±), and no vessel-free region within 2 mm as indicating negative (−). At least six fertilized eggs were used for testing. The angiogenesis inhibition ratio was determined by evaluating (+) as 1 point, (±) as 0.5 point and (−) as 0 point, and calculating the ratio of the points each compound scored for all the eggs used.

[4] = 15 mg/kg intraperitoneally every other day, LLC-bearing mice

Compound	melting point [°C]	angiogenesis inhibition ratio (%) ([3]; dosage 40 μg/egg)	urokinase inhibition ratio (%) ([1]; concentration 3.13 μg/ml)	also measured
CC1c2ccccc2C2(c3ccccc3)OOC1O2 (stereo not drawn) [Compound 9, 4,5-dihydro-5-methyl-1-phenyl-1,4-epoxy-1H-2,3-benzodioxepin]	127 to 128			
c1ccc(C23OOC(O2)c2cccc4cccc3c24)cc1 (stereo not drawn) [Compound 6, 1-phenyl-1,4-epoxy-1H,4H-naphtho[1,8-de][1,2]dioxepin]		100		urokinase inhibition ratio (%) ([1]; concentration 50.0 μg/ml): 90.1%; tumor growth inhibition ratio ([2]; 15 mg/kg intraperitoneally every other day from day 3, estimated tumor volume of day 24, subcutaneous LLC in mice): 59.2%; lung metastasis inhibition ratio ([2]; 15 mg/kg intraperitoneally every other day from day 3, number of metastatic nodules in lungs, LLC in mice): 75.8%; death in the mice [2, 4]: no death; reduction in body weight [2, 4]: little or no reduction in body weight
c1ccc(C2c3ccccc3C3(c4ccccc4)OOC2(c2ccccc2)O3)cc1 (stereo not drawn) [Compound 10, 4,5-dihydro-1,4,5-triphenyl-1,4-epoxy-1H-2,3-benzodioxepin]	171 to 173		94.1	
Cc1ccc(C23OOC(c4ccccc4)(O2)C(C)c2ccccc23)cc1 (stereo not drawn) [Compound 2, 4,5-dihydro-5-methyl-4-phenyl-1-p-tolyl-1,4-epoxy-1H-2,3-benzodioxepin]	139 to 141			urokinase inhibition ratio (%) ([1]; concentration 12.5 μg/ml): 88.3%
c1ccc(C23Cc4ccccc4C(c4ccccc4)(OO2)O3)cc1 (stereo not drawn) [Compound 11, 4,5-dihydro-1,4-diphenyl-1,4-epoxy-1H-2,3-benzodioxepin]	119		91.4	
COc1ccc(C23OOC(c4ccccc4)(O2)C(C)c2ccccc23)cc1 (stereo not drawn) [Compound 3, 4,5-dihydro-1-p-anisyl-5-methyl-4-phenyl-1,4-epoxy-1H-2,3-benzodioxepin]	135 to 136	63	93.8	urokinase inhibition ratio (%) ([1]; concentration 6.25 μg/ml): 94.4%
CC12OOC(c3ccccc3)(O1)c1ccccc1C2c1ccccc1 (stereo not drawn) [Compound 1, 4,5-dihydro-1,5-diphenyl-4-methyl-1,4-epoxy-1H-2,3-benzodioxepin]	178 to 180	75	90.5	urokinase inhibition ratio (%) ([1]; concentration 1.56 μg/ml): 90.0%; angiogenesis inhibition ratio (%) ([3]; dosage 10 μg/egg): 67%
CC(C)C1c2ccccc2C2(c3ccccc3)OOC1(c1ccccc1)O2 (stereo not drawn) [Compound 4, 4,5-dihydro-1,4-diphenyl-5-isopropyl-1,4-epoxy-1H-2,3-benzodioxepin]	130 to 132			
c1ccc(C2c3ccccc3C3OC2(c2ccccc2)ON3c2ccccc2)cc1 (stereo not drawn) [Compound 8, 1,2,4,5-tetrahydro-2,4,5-triphenyl-1,4-epoxy-3,2-benzoxazepin]	155 to 156	56		urokinase inhibition ratio (%) ([1]; concentration 25.0 μg/ml): 82.2%; urokinase inhibition ratio (%) ([1]; concentration 50.0 μg/ml): 93.4%
